{"source": "patent US5830903A", "about": "“Triazole substituted quinoline derivatives for gastrointestinal treat-treatment” (Alkaloida Chemical Co., Ltd., priority 1993, dated 1998)", "key": {"[1]": {"tested_on": "lesions caused by intomethacin", "assay": "Indomethacin-induced gastric lesions", "assay_type": "in vivo, female OFA-rats", "details": "Rattus norvegicus, po, 6 h, read-out: ED50 mg/kg (p.o.)", "description": "The compounds were administered in a volume of 0.5 ml/100 g in a suspension prepared in water with 2-4% Tween-80. After 6 hours the animals were over-anesthesized and their stomachs were opened along the greater curvature. The preparations were investigated by stereomicroscopy using an 8-fold enlargement. The number, size and incidence of erosions and ulcers was noted and compared with the control group treated with the carrier only.\nThe size of the ulcers was determined on the basis of the following score:\n1: ulcer or erosion of the size of 1-2 mm;\n2: ulcer or erosion of the size of 2-3 mm;\n3: ulcer or erosion of the size of 3-4 mm;\n4: ulcer longer than 4 mm;\n5: ulcer longer and broader than 4 mm.\nThe ED50 values were calculated on the basis of ulcer-indexes:\nulcer index=/severeity of lesion x number of lesions/number of animals /n/"}, "[2]": {"tested_on": "lesions induced with hydrochloric acid and ethanol", "assay": "Gastric haemorrhages induced by hydrochloric acid in ethanol (cytoprotection)", "assay_type": "in vivo, female rats", "details": "for average length of haemmorrhages, change in %: treated vs control; for protection against hydrochloric acid/ethanol lesions (in words): 100 mg/kg", "description": "The volume of treatment was 0.5 ml/100 g. […] The average degree of haemorrhages of the treated groups was compared to the control groups treated with the vehicle only. Number of animals was 6-18 in each group."}, "[3]": {"tested_on": "ulcers induced by reserpine", "assay": "Reserpine induced ulcers", "assay_type": "in vivo, female OFA rats", "details": "40 mg/kg p.o.; reserpine 5 mg/kg s.c.; 18 h", "description": "Female OFA rats of 130-160 g weight, starved for 24 hours, were treated at the same time perorally with 40 mg/kg doses of the substances to be tested and with 5 mg/kg s.c. doses of reserpine. After 18 hours the animals were over-anesthesized and the removed stomachs were investigated under stereomicroscope using a 8-fold enlargement. The number of ulcers was counted and their size was evaluated using 0-0.5-1-2-4-8-16-32 scores. The number of animals was 5 for each dose."}, "[4]": {"tested_on": "alcohol induced increase of gastric glandular capillary permeability", "assay": "Alcohol induced increase of gastric glandular capillary permeability", "assay_type": "in vivo, rats", "details": "100% ethanol alone", "description": "After 13 minutes 1 ml of 100% ethanol was added perorally and after further 2 minutes the stomachs were removed and their weights measured. […]"}, "[5]": {"tested_on": "lesions caused by the NSAID naproxen", "assay": "Naproxen-induced gastric erosions, test substance 1 hour after naproxen", "assay_type": "in vivo, WISTAR rats", "details": "naproxen alone 75 mg/kg po., n = 7", "description": "(§1) Administration of the test substances followed 1 hour after injection. After 4 hours the animals were over-anesthesized with ether and the changes (erosions) were evaluated as in Example I.1. The size of the lesions was characterized by way of the ulcer index."}, "[6]": {"tested_on": "stress ulcer caused by immersion", "assay": "Stress ulcer caused by immersion", "assay_type": "in vivo, Wistar rats", "details": "for erosion inhibition % / erosion ulcus-index mm / hyperemia inhibition % / hyperemia ulcer-index mm: n = 7", "description": "30 minutes after peroral treatment with the test substance, […]. After seven hours the glandular lesions appearing in the stomach were evaluated according to the score described in Example I.1."}, "[7]": {"tested_on": "lesions caused by the NSAID piroxicam", "assay": "Piroxicam-induced gastric erosions, test substance 1 hour after piroxicam", "assay_type": "in vivo, WISTAR rats", "details": "piroxicam alone 60 mg/kg po., n = 7", "description": "as §1"}, "[8]": {"tested_on": "histamine stimulated hydrochlorid acid secretion", "assay": "Histamine stimulated gastric acid secretion in Shay rats", "assay_type": "in vivo", "details": "histamine alone 10 mg/kg s.c.", "description": "The test substances were added on the course of operation intra-duodenally. Immediately after operation each rat obtained 0.50 ml s.c. of a physiological salt solution for hydration. After 4 hours the rats were over-anesthesized, the stomach liquid was collected, centrifugated and the volume determined. […] Measurement of stimulated secretion of gastric acid was also carried out according to the above method."}, "[9]": {"details": "60 min before 20 mg/kg indomethacin, from ulcer index, confidence limits 95%"}, "[10]": {"details": "20.0 mg/kg p.o., control 61.3 ± 9.8 (substance 6, n = 6), 80.4 ± 8.2 (substance 11, n = 12)"}}, "note": "Like-named read-outs stand apart in the source and are kept apart here. Marks after values point to notes of the source that are not given here.", "data": [{"compound": "Clc1ccc2c(-n3cncn3)ccnc2c1", "note": "[Substance 2, 4-(1H-1,2,4-triazole-1-yl)-7-chloro-quinoline]", "values": [{"measurement": "ED50", "setting": "[1]; [9]", "result": 53, "unit": "mg/kg"}]}, {"compound": "Cc1cc2ccc(Br)cc2nc1-n1cncn1", "note": "[Substance 7, 2-(1H-1,2,4-triazole-1-yl)-3-methyl-7-bromo-quinoline]", "values": [{"measurement": "ED50", "setting": "[1]; [9]", "result": 34, "unit": "mg/kg"}]}, {"compound": "CCc1nc(Sc2nc3ccccc3cc2C)n[nH]1", "note": "[Substance 12, 2-(5-ethyl-1H-1,2,4-triazole-3-yl-thio)-3-methyl-quinoline]", "values": [{"measurement": "ED50", "setting": "[1]; [9]", "result": 74, "unit": "mg/kg"}]}, {"compound": "CCc1nc(Sc2cc(C)nc3cc(C)cc(C)c23)n[nH]1", "note": "[Substance 10, 2,5,7-trimethyl-4-(5-ethyl-1H-1,2,4-triazole-3-yl-thio)-quinoline]", "values": [{"measurement": "ED50", "setting": "[1]; [9]", "result": 74, "unit": "mg/kg"}]}, {"compound": "Cc1cc(-n2cncn2)c2ccccc2n1", "note": "[Substance 4, 2-methyl-4-(1H-1,2,4-triazole-1-yl)-quinoline]", "values": [{"measurement": "ED50", "setting": "[1]; [9]", "result": 44, "unit": "mg/kg"}]}, {"compound": "Cc1cc(Sc2nc[nH]n2)c2ccccc2n1", "note": "[Substance 9, 2-methyl-4-(1H-1,2,4-triazole-3-yl-thio)-quinoline]", "values": [{"measurement": "ED50", "setting": "[1]; [9]", "result": 47, "unit": "mg/kg"}]}, {"compound": "Cc1cc2ccccc2nc1Sc1nc[nH]n1", "note": "[Substance 11, 2-(1H-1,2,4-triazole-3-yl-thio)-3-methyl-quinoline]", "values": [{"measurement": "average length of haemmorrhages, treated", "setting": "[2]; [10]", "result": "51.8 ± 10.0", "unit": "mm"}, {"measurement": "average length of haemmorrhages, change in %", "setting": "[2]; 20.0 mg/kg p.o.", "result": -36, "unit": "%"}, {"measurement": "number of ulcers, %change compared with control", "setting": "[3]", "result": "+67%"}, {"measurement": "severity of ulcers, %change compared with control", "setting": "[3]", "result": "+37%"}, {"measurement": "ulcers per treated", "setting": "[3]", "result": "5/5"}, {"measurement": "ED50", "setting": "[1]; [9]", "result": 14, "unit": "mg/kg"}]}, {"compound": "CCO", "note": "[100% ethanol, reference compound]", "values": [{"measurement": "Evans-blue", "setting": "[4]", "result": "9.45 ± 0.94", "unit": "µg/g"}, {"measurement": "stomach", "setting": "[4]", "result": "1.1 ± 0.15", "unit": "g"}]}, {"compound": "CCc1ccc2cc(C)c(-n3cncn3)nc2c1", "note": "[Substance 8, 2-(1H-1,2,4-triazole-1-yl)-3-methyl-7-ethyl-quinoline]", "values": [{"measurement": "ED50", "setting": "[1]; [9]", "result": 40, "unit": "mg/kg"}]}, {"compound": "c1ccc2nc(-n3cncn3)ccc2c1", "note": "[Substance 5, 2-(1H-1,2,4-triazole-1-yl)-quinoline]", "values": [{"measurement": "ED50", "setting": "[1]; [9]", "result": 38, "unit": "mg/kg"}]}, {"compound": "COc1ccc2cc([C@H](C)C(=O)O)ccc2c1", "note": "[naproxen, reference compound]", "values": [{"measurement": "ulcus index ± SEM", "setting": "[5]", "result": "25.2 ± 6.1"}]}, {"compound": "CN/C(=N/CCSCc1nc[nH]c1C)NC#N", "note": "[cimetidine, reference compound]", "values": [{"measurement": "protection against hydrochloric acid/ethanol lesions (in words)", "setting": "[2]", "result": "practically ineffective"}, {"measurement": "protection against hydrochloric acid/ethanol lesions (in words)", "setting": "[2]; listed as Cimetidin", "result": "practically inactive"}, {"measurement": "average length of haemmorrhages, treated", "setting": "[2]; 300 mg/kg p.o., n = 16, control 74.8 ± 6.4", "result": "64.2 ± 12.3", "unit": "mm"}, {"measurement": "average length of haemmorrhages, change in %", "setting": "[2]; 300 mg/kg p.o.", "result": -24, "unit": "%"}, {"measurement": "erosion inhibition %", "setting": "[6]; 100 mg/kg p.o.", "result": 34, "unit": "%"}, {"measurement": "erosion ulcus-index mm", "setting": "[6]; 100 mg/kg p.o.", "result": "24.4 ± 10.0", "unit": "mm"}, {"measurement": "hyperemia inhibition %", "setting": "[6]; 100 mg/kg p.o.", "result": 21, "unit": "%"}, {"measurement": "hyperemia ulcer-index mm", "setting": "[6]; 100 mg/kg p.o.", "result": "58.1 ± 10.4", "unit": "mm"}, {"measurement": "erosion inhibition %", "setting": "[6]; 200 mg/kg p.o.", "result": 50, "unit": "%"}, {"measurement": "erosion ulcus-index mm", "setting": "[6]; 200 mg/kg p.o.", "result": "18.2 ± 11.2", "unit": "mm"}, {"measurement": "hyperemia inhibition %", "setting": "[6]; 200 mg/kg p.o.", "result": 39, "unit": "%"}, {"measurement": "hyperemia ulcer-index mm", "setting": "[6]; 200 mg/kg p.o.", "result": "48.2 ± 14.6", "unit": "mm"}, {"measurement": "inhibition of hyperemia and erosion (in words)", "setting": "[6]; substance 1 at 50 mg/kg p.o., cimetidine", "result": "no significant inhibition"}, {"measurement": "ED50", "setting": "[1]", "result": 96, "unit": "mg/kg"}]}, {"compound": "CN1C(C(=O)Nc2ccccn2)=C(O)c2ccccc2S1(=O)=O", "note": "[piroxicam, reference compound]", "values": [{"measurement": "ulcus index ± SEM", "setting": "[7]", "result": "23.3 ± 6.4"}]}, {"compound": "Cc1ccc2c(-n3cncn3)ccnc2c1", "note": "[Substance 3, 4-(1H-1,2,4-triazole-1-yl)-7-methyl-quinoline]", "values": [{"measurement": "ED50", "setting": "[1]; [9]", "result": 74, "unit": "mg/kg"}]}, {"compound": "NCCc1c[nH]cn1", "note": "[histamine, reference compound]", "values": [{"measurement": "acid secretion μEqu/4^h", "setting": "[8]", "result": "1477 ± 80", "unit": "μEqu/4^h"}, {"measurement": "acidity μEqu/ml", "setting": "[8]", "result": "237 ± 18", "unit": "μEqu/ml"}, {"measurement": "volume/4^h", "setting": "[8]", "result": "6.3 ± 0.7", "unit": "mL"}]}, {"compound": "Cc1cc2ccccc2nc1-n1cncn1", "note": "[Substance 6, 2-(1H-1,2,4-triazole-1-yl)-3-methyl-quinoline]", "values": [{"measurement": "average length of haemmorrhages, treated", "setting": "[2]; [10]", "result": "48.0 ± 10.3", "unit": "mm"}, {"measurement": "average length of haemmorrhages, change in %", "setting": "[2]; 20.0 mg/kg p.o.", "result": -22, "unit": "%"}, {"measurement": "number of ulcers, %change compared with control", "setting": "[3]", "result": "+17%"}, {"measurement": "severity of ulcers, %change compared with control", "setting": "[3]", "result": -5, "unit": "%"}, {"measurement": "ulcers per treated", "setting": "[3]", "result": "5/5"}, {"measurement": "ED50", "setting": "[1]; [9]", "result": 29, "unit": "mg/kg"}]}]}
